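Interpolation was linear, between the two tested concentrations surrounding the appropriate level; five concentrations were tested over 48 hours in 96-well plates. Abbreviation: GI50, concentration required for 50% inhibition of growth. TGI denotes the concentration required for complete inhibition of growth.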

One test has as its system COLO 205 colon. Description: NCI anticancer screen, dose series, 48 h.
With `Cc1cn2c(/C=C3\C(=O)Nc4ccc(O)cc43)c(-c3ccc(Cl)cc3)nc2s1`, the GI50 is 20.8 µM and the TGI came to 81.1 µM.

For the compound `CC1=CC(=O)[C@@H](O)[C@]2(C)[C@H]3[C@@]4(O)OC[C@]35[C@H]([C@@H](C)[C@H]4O)[C@@H](O)C(=O)O[C@@H]5C[C@@H]12`, the TGI is 2.45 µM.

Take `O=C(NC(=O)c1cn(CCNCCO)c(=O)[nH]c1=O)OCc1ccccc1`: the TGI was above 100 µM.

In turn, `CCSc1[nH]c(Nc2nc(-c3ccccc3)n(-c3ccccc3)n2)c(C(N)=O)c1C(N)=O` came in with a TGI above 10 µM.

`CCC1C2C=CC(CC2)N1S(=O)(=O)c1ccc(C)cc1` (configuration not stated) yielded a TGI of 54.5 µM.

Consider `COc1ccc2[nH]cc(-c3nc(-c4c[nH]c5ncccc45)cs3)c2c1`, for which the GI50 was 0.661 µM and the TGI was 3.88 µM.

`O=C(N/N=C1/C(=O)N(c2ccc(Cl)cc2Cl)C(=O)C(=O)C1c1nc2ccccc2o1)c1ccccc1O` (configuration not stated) yielded a TGI above 100 µM.

`O=c1cc(-c2ccccc2)[nH]c2c(S)cccc12` showed a TGI above 100 µM.

For the compound `CC(=O)O[C@H]1CCC2[C@@H]3CCC4=C(O)c5nocc5C[C@]4(C)C3CC[C@@]21C` (some centres not stated), the TGI was above 100 µM.

For the compound `O=C1[C@@H]2C3c4ccccc4C([C@@H]2C(=O)N1c1ccccc1)S3(=O)=O`, the TGI is above 100 µM.

`COc1ccc(/C(=N\NC(=O)C(N)=O)C(c2ccc(OC)cc2)C2(O)C(=O)Nc3c(Cl)cccc32)cc1` (configuration not stated) had a TGI above 100 µM.

As for `COc1ccccc1N1CCN(CCCn2c(=O)c3c(OC)nc(C)cc3c(=O)n2-c2ccccc2)CC1`, the GI50 was above 100 µM and the TGI is above 100 µM.

`Cc1ccc(-c2nc3ccc([N+](=O)[O-])cc3[nH]2)cc1` registered a TGI above 100 µM.

The subject of a further test is OVCAR-4 ovarian. Description: NCI anticancer screen, dose series, 48 h.
Regarding `c1ccc(SC2CCSc3ccccc3C2Sc2ccccc2)cc1` (configuration not stated), the TGI is above 100 µM.

`COC(=O)[C@]1(C)CCCC2(C)C1CC[C@H]1C=C(C)[C@H]3CCC12C3` (some centres not stated) gave a TGI above 100 µM.

`Cc1ccc(Cn2c(C)nc3c2C(=O)c2ccccc2C3=O)cc1` came in with a TGI of 63.4 µM.

Take `CC(C)=CCc1cc(O)cc2c1OC(C=C(C)C)C1=C2C(=O)C2=C(NCCS2(=O)=O)C1=O` (configuration not stated): the GI50 is 0.811 µM and the TGI stood at 3.06 µM.

`Cc1c(Cl)cccc1N1C(=O)C(Cl)=C(Cl)C1=O` showed a TGI above 100 µM.

For the compound `COc1cccc(/C=N/[N-]C(=O)c2ccncc2)c1[O-].[Cu+2].[OH3+]`, the GI50 is 78.6 µM and the TGI is above 100 µM.

As for `O=C1NC(=S)NNC12c1ccccc1-c1ccccc12`, the TGI is above 10 µM.

Consider `COc1c(OC)c(OC)c(C(=O)/C=C/c2ccccc2)c(OC)c1OC`, for which the TGI amounted to 30.7 µM.

Take `COc1ccc(C(O)c2nccn2C)c(OC)c1` (configuration not stated): the TGI is above 100 µM.

`NS(=O)(=O)c1ccc(N(/C=C/C(=O)C(F)(F)F)CC(=O)c2ccc(Cl)cc2)cc1`: the GI50 was 60 µM and the TGI is above 100 µM.

For `C1CSCCSCCS1`, the TGI is above 100 µM.

As for `Cc1cn2c(/C=C3\C(=O)Nc4ccc(O)cc43)c(-c3ccc(Cl)cc3)nc2s1`, the GI50 was 7.31 µM and the TGI stood at 27.8 µM.

In the case of `CC1=CC(=O)[C@@H](O)[C@]2(C)[C@H]3[C@@]4(O)OC[C@]35[C@H]([C@@H](C)[C@H]4O)[C@@H](O)C(=O)O[C@@H]5C[C@@H]12`, the TGI is 6.66 µM.

`O=C(NC(=O)c1cn(CCNCCO)c(=O)[nH]c1=O)OCc1ccccc1` showed a TGI above 100 µM.

For `CCSc1[nH]c(Nc2nc(-c3ccccc3)n(-c3ccccc3)n2)c(C(N)=O)c1C(N)=O`, the TGI is above 10 µM.

`CCC1C2C=CC(CC2)N1S(=O)(=O)c1ccc(C)cc1` (configuration not stated): the TGI was above 100 µM.

Consider `COc1ccc2[nH]cc(-c3nc(-c4c[nH]c5ncccc45)cs3)c2c1`, for which the GI50 was 6.89 µM and the TGI was above 100 µM.

`O=c1cc(-c2ccccc2)[nH]c2c(S)cccc12` yielded a TGI above 100 µM.

Regarding `CC(=O)O[C@H]1CCC2[C@@H]3CCC4=C(O)c5nocc5C[C@]4(C)C3CC[C@@]21C` (some centres not stated), the TGI is above 100 µM.

`COc1ccc(/C(=N\NC(=O)C(N)=O)C(c2ccc(OC)cc2)C2(O)C(=O)Nc3c(Cl)cccc32)cc1` (configuration not stated) gave a TGI above 100 µM.

Take `COc1ccccc1N1CCN(CCCn2c(=O)c3c(OC)nc(C)cc3c(=O)n2-c2ccccc2)CC1`: the GI50 is above 100 µM and the TGI is above 100 µM.

For the compound `Cc1ccc(-c2nc3ccc([N+](=O)[O-])cc3[nH]2)cc1`, the TGI was above 100 µM.

The test system of a further test is HL-60(TB) leukemia. Briefly: NCI anticancer screen, dose series, 48 h.
In the case of `c1ccc(SC2CCSc3ccccc3C2Sc2ccccc2)cc1` (configuration not stated), the TGI is above 100 µM.

For the compound `COC(=O)[C@]1(C)CCCC2(C)C1CC[C@H]1C=C(C)[C@H]3CCC12C3` (some centres not stated), the TGI was above 100 µM.

Take `O=C(Nc1cc(Cl)ccc1Cl)c1cc2cccc(Cl)c2oc1=O`: the TGI was above 100 µM.

In the case of `Cc1ccc(Cn2c(C)nc3c2C(=O)c2ccccc2C3=O)cc1`, the TGI is 41 µM.

In the case of `COc1cccc(/C=N/[N-]C(=O)c2ccncc2)c1[O-].[Cu+2].[OH3+]`, the GI50 was 23 µM and the TGI was determined as 53.7 µM.

In the case of `O=C1NC(=S)NNC12c1ccccc1-c1ccccc12`, the TGI was above 10 µM.

Turning to `COc1c(OC)c(OC)c(C(=O)/C=C/c2ccccc2)c(OC)c1OC`, the TGI amounted to 38.2 µM.

In turn, `COc1ccc(C(O)c2nccn2C)c(OC)c1` (configuration not stated) came in with a TGI above 100 µM.

In turn, `C1CSCCSCCS1` displayed a TGI above 100 µM.

As for `Cc1cn2c(/C=C3\C(=O)Nc4ccc(O)cc43)c(-c3ccc(Cl)cc3)nc2s1`, the GI50 was 14.4 µM and the TGI came out at 40.7 µM.

The compound `O=C(NC(=O)c1cn(CCNCCO)c(=O)[nH]c1=O)OCc1ccccc1` showed a TGI above 100 µM.

For the compound `CCSc1[nH]c(Nc2nc(-c3ccccc3)n(-c3ccccc3)n2)c(C(N)=O)c1C(N)=O`, the TGI is above 10 µM.

`CCC1C2C=CC(CC2)N1S(=O)(=O)c1ccc(C)cc1` (configuration not stated) displayed a TGI of 19.5 µM.

Consider `COc1ccc2[nH]cc(-c3nc(-c4c[nH]c5ncccc45)cs3)c2c1`, for which the GI50 was 1.81 µM and the TGI is above 100 µM.

Consider `O=c1cc(-c2ccccc2)[nH]c2c(S)cccc12`, for which the TGI was above 100 µM.

The compound `O=C1[C@@H]2C3c4ccccc4C([C@@H]2C(=O)N1c1ccccc1)S3(=O)=O` displayed a TGI above 100 µM.

`COc1ccc(/C(=N\NC(=O)C(N)=O)C(c2ccc(OC)cc2)C2(O)C(=O)Nc3c(Cl)cccc32)cc1` (configuration not stated) yielded a TGI above 100 µM.

Consider `COc1ccccc1N1CCN(CCCn2c(=O)c3c(OC)nc(C)cc3c(=O)n2-c2ccccc2)CC1`, for which the GI50 is above 100 µM and the TGI is above 100 µM.

In the case of `Cc1ccc(-c2nc3ccc([N+](=O)[O-])cc3[nH]2)cc1`, the TGI is above 100 µM.

The values above are taken from PubChem BioAssay (NCI).
